According to US3947411A, “Novel 1-aryl-2-arylalkyl-3-or-4-[4'-(substituted-alkyl)piperazino-1']butanols- 2-or-butenes-1, and methods of manufacture thereof” (Warner-Lambert Company, priority 1972, dated 1976):
Converted amounts (≈) assume the structure as drawn.

Assays:
Staphylococcus aureus = experiment: Agar well inhibition zone test against bacteria, Staphylococcus aureus (Table III); conditions: quantity per well giving inhibition zone (500, 50, 5 μg tested); nutrient agar, 37°, 24 hours
A. niger [1] = experiment: Minimum inhibitory concentration for fungi in presence of serum, A. niger (Table VI); type: cell-based; conditions: Aspergillus niger; Sabouraud nutrient broth + 10% bovine serum, 28°C, 48 hours
Solubility in water = type: physicochemical; conditions: hydrochlorides or oxalates, read-out: solubilities (in water)
Method: The following list contains examples of those compounds which are made according to the methods disclosed. (The individual compounds are identified by elementary analyses and infrared spectra, by ultra-violet or nuclear resonance spectra, if necessary.) Individual melting points and solubilities (in water) are also given as is the method by which each compound is prepared.
The melting points and solubilities are given for the Hydrochlorides I - XVI; XVIII - XXVII; XXIX - XXXV; XXXVII - XLII; XLIV - LXII; LXIV - LXVII, and the Oxalates XVII; […]; XXXVI; LXIII.

C. albicans [2] = experiment: Minimum inhibitory concentration for fungi in presence of serum, C. albicans (Table VI); type: cell-based; conditions: Candida albicans; Sabouraud nutrient broth + 10% bovine serum, 28°C, 48 hours
Aspergillus niger = experiment: Agar well inhibition zone test against fungi, Aspergillus niger (Table II); conditions: quantity per well giving inhibition zone (500, 50, 5 μg tested); Sabouraud agar, 28°, 48 hours
Method: The efficacy of the compounds against fungi was tested as follows:
The test organisms, in this case the blastomycete Candida albicans and the mold Aspergillus niger, were inoculated onto Sabouraud agar plates by pouring a photometrically adjusted standard suspension of organisms on the plate. After inoculation, wells with a diameter of 5.0 mm were punched in the agar, and filled with 50 ul of the compound solution mentioned before. The quantity of compound applied thus amounted to 500 μg, 50 μg and 5 μg. After incubation at 28° for 48 hours, the quantity of compound was determined at which an inhibition of the organism's growth, in form of an inhibition zone around the corresponding well, was present.

C. albicans [3] = experiment: Minimum inhibitory concentration for fungi, tube dilution, C. albicans (Table IV); conditions: Candida albicans, 48 h, read-out: Minimum Inhibitory Concentration, C. albicans
Method: (§1) A tube dilution series of the respective compound in Sabouraud nutrient broth, whose individual tubes contained concentrations of 1024 μg, 512 μg, 256 μg, 128 μg, 64 μg, 32 μg, 16 μg, 8 μg, 4 μg, 2 μg, 1.1 μg and 0.5 μg/ml, was prepared and inoculated with a photometrically standardized suspension of the test organisms or the spores thereof.

Candida albicans = experiment: Agar well inhibition zone test against fungi, Candida albicans (Table II); conditions: quantity per well giving inhibition zone (500, 50, 5 μg tested); Sabouraud agar, 28°, 48 hours
Escherichia coli = experiment: Agar well inhibition zone test against bacteria, Escherichia coli (Table III); conditions: quantity per well giving inhibition zone (500, 50, 5 μg tested); nutrient agar, 37°, 24 hours
Method: The efficacy of the compounds against bacteria was tested as follows:
The test organisms, in this case Staphylococcus aureus and Escherichia coli, were inoculated on nutrient agar as described in Example 12, wells were punched, and the solutions of the compounds were transferred to fill the wells. The quantity of compound in the wells amounted again to 500 μg, 50 μg and 5 μg.
After incubation a 37° for 24 hours the quantity of compound was determined at which an inhibition of the organism's growth, in the form of an inhibition zone around the corresponding well, occurred.

A. niger [4] = experiment: Minimum inhibitory concentration for fungi, tube dilution, A. niger (Table IV); conditions: Aspergillus niger, 48 h, read-out: Minimum Inhibitory Concentration, A. niger
Method: as §1

Staph. aureus = experiment: Minimum inhibitory concentration for bacteria, tube dilution, Staph. aureus (Table V); conditions: Staphylococcus aureus, 48 h, read-out: Minimum Inhibitory Concentration, Staph. aureus
Method: A tube dilution series of the respective compound in nutrient broth whose individual tubes contained concentrations of 1024 μg, 512 μg, 256 μg, 128 μg, 64 μg, 32 μg, 1 μg, 8 μg, 4 μg, 2 μg, 1.1 μg and 0.5 μg/ml was prepared and inoculated with a photometrically standardized suspension of the test organisms.

[5] = system: Mycobacterium tuberculosis II 37 RV (typus humanus); experiment: Efficacy against Mycobacteria, Tb-broth dilution series (Table I); type: cell-based; conditions: 504 h, Dubos Tb-broth + 10% bovine serum, 21 days, read-out: Minimum Inhibitory Concentration

Row | Compound | Inhibition Area at μg, Staph. aureus (Staphylococcus aureus) [µg] | MIC (A. niger [1]) [µg/mL] | solubility (Solubility in water) [mg/mL] | MIC (C. albicans [2]) [µg/mL] | Inhibition Area at μg, Asp. niger (Aspergillus niger) [µg] | MIC (C. albicans [3]) [µg/mL] | Inhibition Area at μg, Cand. albicans (Candida albicans) [µg] | Inhibition Area at μg, E. coli (Escherichia coli) [µg] | MIC (A. niger [4]) [µg/mL] | MIC (Staph. aureus) [µg/mL] | MIC [5] [µg/mL]
1 | CC(N1CCN(CCN2CCN(C)CC2)CC1)C(O)(Cc1ccccc1)Cc1ccccc1 (stereo not drawn) [X, 1-phenyl-2-benzyl-3-{4'-[β-(4"-methyl-piperazino-1")-ehtyl]-piperazino-1'}-butanol-2] | 500 | 16 | 100 (≈ 222000 µM) | 16 | 50 | 16 (≈ 35.5 µM) | 50 | 500 | 16 (≈ 35.5 µM) | – | –
2 | CC(C(=Cc1ccccc1)Cc1ccccc1)N1CC[N+]2(CCCCCC2)CC1 (stereo not drawn) [LXVII, hexahydro-azepinium-1-spiro-1'-piperazinium-4'-(3-benzyl-4-phenyl-but-3-en-2-yl)-chloride] | 50 | 128 | 10 | 64 | 50 | 128 | 50 | 500 | 128 | 8 | –
3 | CC1CCCCN1CCN1CCN(C(C)C(=Cc2ccccc2)Cc2ccccc2)CC1 (stereo not drawn) [XXXIII, 1-phenyl-2-benzyl-3-[4'-(β-2"-methyl-piperidinoethyl)-piperazino-1']-butene-1] | 50 | – | 100 (≈ 232000 µM) | – | 50 | 256 (≈ 593 µM) | 5 | 500 | 256 (≈ 593 µM) | 128 (≈ 297 µM) | 20
4 | CC(C(=Cc1ccccc1)Cc1ccccc1)N1CCN(CCN2CCN(C)CC2)CC1 (stereo not drawn) [XXXVI, 1-phenyl-2-benzyl-3-{4'-[β-(4"-methylpiperazino-1")-ethyl]-piperazino-1'}-butene-1] | 500 | 8 | < 10 | 32 | 50 | 4 (≈ 9.25 µM) | 50 | > 500 | 2 (≈ 4.62 µM) | – | –
5 | CC1CN(CCN2CCN(C(C)C(O)(Cc3ccccc3)Cc3ccccc3)CC2)CCO1 (stereo not drawn) [VI, 1-phenyl-2-benzyl-3-{4'-[β-(2"-methyl-morpholino)-ethyl]-piperazino-1'}-butanol-2] | > 500 | – | 100 (≈ 221000 µM) | – | 500 | – | 500 | > 500 | – | – | 100
6 | CC(N1CCN(CCCCCCN2CCCCC2)CC1)C(O)(Cc1ccccc1)Cc1ccccc1 (stereo not drawn) [XX, 1-phenyl-2-benzyl-3-[4'-(w-piperidino-n-hexyl)-piperazino-1']-butanol-2] | 50 | 8 | 100 (≈ 203000 µM) | 128 | 5 | 64 (≈ 130 µM) | 50 | 500 | 4 (≈ 8.13 µM) | 128 (≈ 260 µM) | –
7 | CN1CCN(CCCCCCN2CCN(CCC(=Cc3ccccc3)Cc3ccccc3)CC2)CC1 [LXV, 1-phenyl-2-benzyl-4-[4'-w-(4"-methyl-piperazino-1")-n-hexyl-piperazino-1']-butene-1] | 500 | 8 | 100 (≈ 205000 µM) | 32 | 5 | 32 (≈ 65.5 µM) | 5 | 500 | 8 (≈ 16.4 µM) | – | –
8 | Cc1cccc(CC(O)(Cc2cccc(C)c2)C(C)N2CCN(CCN3CCCCC3)CC2)c1 (stereo not drawn) [XXI, 1-m-tolyl-2-m-methylbenzyl-3-[4'-(β-piperidino-ethyl)-piperazino-1']-butanol-2] | 5 | 128 | 100 (≈ 216000 µM) | 256 | 5 | 8 (≈ 17.3 µM) | 50 | > 500 | 4 (≈ 8.63 µM) | 64 (≈ 138 µM) | –
9 | CC1CN(CCN2CCN(C(C)C(=Cc3ccccc3)Cc3ccccc3)CC2)CCO1 (stereo not drawn) [XXXII, 1-phenyl-2-benzyl-3-{4'-[β-(2-methylmorpholino)-ethyl]-piperazino-1'}-butene-1] | 50 | – | 100 (≈ 231000 µM) | – | 50 | – | 500 | > 500 | 128 (≈ 295 µM) | 128 (≈ 295 µM) | 50
10 | CC(N1CCN(CCN2CCN(CCc3ccccc3)CC2)CC1)C(O)(Cc1ccccc1)Cc1ccccc1 (stereo not drawn) [XIV, 1-phenyl-2-benzyl-3-{4'-[β-(4"-β-phenethyl-piperazino-1")-ethyl]-piperazino-1'}-butanol-2] | 50 | 64 | 100 (≈ 185000 µM) | 128 | 50 | 32 (≈ 59.2 µM) | 50 | 500 | 16 (≈ 29.6 µM) | 32 (≈ 59.2 µM) | –
11 | CC(N1CCN(CCCl)CC1)C(O)(Cc1ccccc1)Cc1ccccc1 (stereo not drawn) [XLV, 1-phenyl-2-benzyl-3-[4'-(β-chloro-ethyl)-piperazino-1']-butanol-2] | 50 | – | 25 (≈ 64600 µM) | – | 500 | > 1020 | 50 | 500 | – | > 1020 | 100
12 | CC1CCN(CCN2CCN(C(C)C(=Cc3ccccc3)Cc3ccccc3)CC2)CC1 (stereo not drawn) [XXXV, 1-phenyl-2-benzyl-3-{4'-[β-(4"-methylpiperidino)-ethyl]-piperazino-1'}-butene-1] | 50 | 128 | 10 (≈ 23200 µM) | 32 | 50 | 8 (≈ 18.5 µM) | 50 | 500 | 8 (≈ 18.5 µM) | 256 (≈ 593 µM) | –
13 | CC(N1CCN(Cc2cccnc2)CC1)C(O)(Cc1ccccc1)Cc1ccccc1 (stereo not drawn) [XXIII, 1-phenyl-2-benzyl-3-[4'-(3"-pyridylmethyl)-piperazino-1']-butanol-2] | 500 | – | 50 (≈ 120000 µM) | – | > 500 | – | 500 | > 500 | – | – | 1000
14 | CC(c1ccccc1)N1CCN(CCN2CCN(C(C)C(O)(Cc3ccccc3)Cc3ccccc3)CC2)CC1 (stereo not drawn) [XIII, 1-phenyl-2-benzyl-3-{4'-[β-(4"-α-phenethyl-piperazino-1")-ethyl]-piperazino-1'}-butanol-2] | 5 | 256 | 100 (≈ 185000 µM) | 513 | 500 | – | 500 | 500 | – | 32 (≈ 59.2 µM) | –
15 | CC(N1CCN(Cc2ccncc2)CC1)C(O)(Cc1ccccc1)Cc1ccccc1 (stereo not drawn) [XXIV, 1-phenyl-2-benzyl-3-[4'-(4"-pyridylmethyl)-piperazino-1']-butanol-2] | > 500 | 128 | 100 (≈ 241000 µM) | 128 | > 500 | – | > 500 | > 500 | – | – | –
16 | CC(C(=Cc1ccccc1)Cc1ccccc1)N1CCN(CCN(C(C)C)C(C)C)CC1 (stereo not drawn) [XXVIII, 1-phenyl-2-benzyl-3-[4'-(β-diisopropylamino-ethyl)-piperazino-1']-butene-1] | 50 | > 1020 | 10 (≈ 23100 µM) | 256 | 50 | 64 (≈ 148 µM) | 50 | 500 | 32 (≈ 73.8 µM) | 64 (≈ 148 µM) | –
17 | CC(C(=Cc1ccccc1)Cc1ccccc1)N1CCN(CCN2CCN(C(C)c3ccccc3)CC2)CC1 (stereo not drawn) [XXXVIII, 1-phenyl-2-benzyl-3-{4'-[β-(4"-α-phenethyl-piperazino-1")-ethyl]-piperazino-1'}-butene-1] | 5 | > 1020 | 100 (≈ 191000 µM) | > 1020 | 500 | – | 500 | 500 | – | 128 (≈ 245 µM) | –
